Source: patent US7709497B2, “Pyrazolo[3,4-b]pyridine compound, and its use as a PDE4 inhibitor” (Glaxo Group Limited, priority 2004, dated 2010)

Experiments:
[1] = biological target: PDE4D (human recombinant) (Homo sapiens, UniProt Q08499); experiment: PDE4D inhibition, IMAP Fluorescence Polarisation (FP) assay; type: biochemical; details: n = 2; accuracy ±about 0.5 log unit; read-out: PDE4D pIC50 (FP assay, mean value) (converted)
Excerpt: Human recombinant PDE4D (HSPDE4D3A) is disclosed in P. A. Baecker et al., “Isolation of a cDNA encoding a human rolipram-sensitive cyclic AMP phoshodiesterase (PDE IVD)”, Gene, 1994, 138, 253-256.
The ability of compounds to inhibit catalytic activity at PDE4B (human recombinant) or PDE4D (human recombinant) can optionally be determined by IMAP Fluorescence Polarisation (FP) assay (IMAP Explorer kit, available from Molecular Devices Corporation, Sunnydale, Calif., USA; Molecular Devices code: R8062) in a 384-well format.
The IMAP FP assay is able to measure PDE activity in an homogenous, non-radioactive assay format. […] Binding of Fl-AMP product to the beads (coated with the immobilised trivalent cations) slows the rotation of the bound Fl-AMP and leads to an increase in the fluorescence polarisation ratio of parallel to perpendicular light. […]
Test compounds (small volume, e.g. ca. 0.5 to 1 microliters (ul), preferably ca. 0.5 ul, of solution in DMSO) are preincubated at ambient temperature (room temperature, e.g. 19-23° C.) in black 384-well microtitre plates (supplier: NUNC, code 262260) with PDE enzyme in 10 mM Tris-HCl buffer pH 7.2, 10 mM MgCl2, 0.1% (w/v) bovine serum albumin, and 0.05% NaN3 for 10-30 minutes. […] The Fluorescence Polarisation (FP) ratio of parallel to perpendicular light is measured using an Analyst™ plate reader (from Molecular Devices Corporation). […]

[2] = tested on: TNF-α (TNF-alpha) production in Human PBMC (Peripheral Blood Mononuclear Cell); experiment: Inhibition of TNF-α production in Human PBMC assay; type: cell-based; details: LPS-stimulated, n=9, read-out: Inhibition of TNF-α production in PBMCs pIC50 (converted)
Protocol: Test compounds are prepared as a ca. 10 mM stock solution in DMSO and a dilution series prepared in DMSO with 8 successive 3-fold dilutions, either directly from the 10 mM stock solution or from a more dilute solution in DMSO. The compound is added to assay plates using a Biomek Fx liquid handling robot.
PBMC cells (peripheral blood mononuclear cells) are prepared from heparinised human blood from normal volunteers by centrifugation on histopaque at ca. 1000 g for ca. 30 minutes. The cells are collected from the interface, washed by centrifugation (ca. 1300 g, ca. 10 minutes) and resuspended in assay buffer (RPMI 1640 containing 10% foetal calf serum, 1% L-glutamine and 1% penicillin/streptomycin) at 1×10^6 cells/ml. Ca. 50 μl (ca. 50 ul) cells are added to microtitre wells containing ca. 0.5 or ca/1.0 μl (ul) of an appropriately diluted compound solution. Ca. […] The supernatant is removed and the concentrations of TNF are determined by electrochemiluminescence assay using the IGEN technology or by ELISA (see below).
Ca. […] 50 μl (ul) of streptavidin/biotinylated anti-TNF-α antibody mix, ca. 25 μl ruthenium tagged anti-TNF-α monoclonal and ca. 100 μl PBS containing 0.1% bovine serum albumin are added to each well and the plates are sealed and shaken for ca. 2 hours before being read on an IGEN instrument. […]

Sequence of PDE4D (human recombinant) (Q08499 1-673 isoform Q08499-2): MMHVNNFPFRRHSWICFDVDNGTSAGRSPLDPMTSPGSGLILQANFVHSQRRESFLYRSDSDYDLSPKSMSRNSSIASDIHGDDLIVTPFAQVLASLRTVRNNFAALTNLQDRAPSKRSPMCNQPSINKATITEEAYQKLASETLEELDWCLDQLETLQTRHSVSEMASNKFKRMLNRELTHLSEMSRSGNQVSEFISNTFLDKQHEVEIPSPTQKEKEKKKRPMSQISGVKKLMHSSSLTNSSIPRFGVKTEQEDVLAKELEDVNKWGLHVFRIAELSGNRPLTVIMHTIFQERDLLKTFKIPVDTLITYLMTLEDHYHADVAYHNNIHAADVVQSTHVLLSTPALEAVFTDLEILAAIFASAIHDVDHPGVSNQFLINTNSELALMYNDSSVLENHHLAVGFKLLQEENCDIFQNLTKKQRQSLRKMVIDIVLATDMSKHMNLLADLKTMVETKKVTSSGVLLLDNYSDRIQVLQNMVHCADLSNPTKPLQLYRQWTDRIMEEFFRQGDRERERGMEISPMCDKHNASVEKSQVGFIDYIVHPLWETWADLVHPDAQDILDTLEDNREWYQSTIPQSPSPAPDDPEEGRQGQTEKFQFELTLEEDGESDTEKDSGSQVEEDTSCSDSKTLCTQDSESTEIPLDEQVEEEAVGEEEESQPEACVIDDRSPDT

- IC50 [1]: 0.55 nM
SMILES: CCn1ncc2c(NC3CCN(C(N)=O)CC3)c(C(=O)NCc3ccc(C)c(C)c3)cnc21 [compound of formula (I), 4-{[1-(aminocarbonyl)-4-piperidinyl]amino}-N-[(3,4-dimethylphenyl)methyl]-1-ethyl-1H-pyrazolo[3,4-b]pyridine-5-carboxamide]
- IC50 [2]: 1.82 nM
